From article PMC9405596, “Evaluation of the Anti-Leishmania mexicana and -Trypanosoma brucei Activity and Mode of Action of 4,4′-(Arylmethylene)bis(3-methyl-1-phenyl-1H-pyrazol-5-ol)” (Biomedicines, 2022)
Like-named read-outs stand apart in the source and are kept apart here.

Tests used:
[1] = system: L. mexicana promastigotes; test: MTT viability assay against L. mexicana promastigotes; type: cell-based, Leishmania mexicana; conditions: for IC50: 48 h; for L. mexicana Promastigote SI vs. Macrophage: CC50 RAW macrophages/IC50 L. mexicana; for L. mexicana Promastigote SI vs. Hepatocytes: CC50 HepG2 hepatocytes/IC50 L. mexicana
Protocol: The leishmanicidal activity against promastigotes from L. mexicana was evaluated by measuring parasites’ mitochondrial activity using the MTT (Thiazolyl Blue Tetrazolium Bromide) colorimetric assay as described previously. […] The medium was renewed every third day and subcultures were prepared when parasite density reached 1 × 10^7 parasites/mL. A Neubauer chamber was used to determine parasite density.

[2] = MTT cytotoxicity assay, murine macrophages; type: cell-based; conditions: mouse, RAW 264.7 macrophage cells, RAW 264.7, 48 h
Protocol: (§1) Murine macrophages (cell line RAW 264.7, ATCC® TIB-71™) were grown in Dulbecco’s Modified Eagle Medium (DMEM) (Gibco, Invitrogen, Waltham, MA, USA) supplemented with 10% fetal bovine serum (FBS) (Eurobio) and 100 IU/mL penicillin + 100 µg/mL streptomycin (Gibco), at 37 °C, in an atmosphere containing 5% CO2. Human hepatocyte cell line HepG2 (ATCC® HB-8065™) was grown in MEM (Gibco, Invitrogen) supplemented with 10% FBS (Gibco, Invitrogen), 1% NEAA (Gibco, Invitrogen), and 1% L-glutamine (Gibco, Invitrogen). The medium was renewed twice a week. For both cell lines, the viability was determined using the MTT assay as described before for leishmanicidal activity assessment, with some variations. Here, 5 × 10^4 cells/well in a final volume of 100 µL were seeded into a 96-well plate, in triplicate for RAW macrophages and in duplicate for HepG2. Saponin (2.4 mg/mL) and untreated cells were used as positive control and negative control, respectively. Compounds were dissolved in DMSO to obtain different serial concentrations (1.56 to 800 µM) for RAW macrophages and 100–0.001 µM for HepG2. The final concentration of DMSO in each well was 0.5%. After exposure to compounds for 48 h and 72 h for RAW and HepG2 cells, respectively, 10 µL/well of MTT (5 mg/mL in PBS) was added, incubated at 37 °C for 2 h in darkness, and cells were pelleted via centrifugation at 4400 rpm for 10 min. The medium was removed, and 100 µL/well of DMSO was added to dissolve formazan. The absorbance at 570 and 630 nm was recorded following the same procedure as with parasites.

[3] = MTT cytotoxicity assay, HepG2; type: cell-based; conditions: human, HepG2 cells, HepG2, 72 h, read-out: CC50 HepG2 Hepatocytes
Protocol: as §1

[4] = system: bloodstream form of T. b. brucei (strain 427); test: Bioluminescence viability assay against bloodstream T. b. brucei expressing luciferase; conditions: for activity at 10 µM / inhibition at 10 µM / IC50: 24 h; for activity at 10 µM: read-out: T. brucei bloodstream % Growth (10 µM), 10 µM, 24 h; for inhibition at 10 µM: read-out: T. brucei growth inhibition at 10 µM; for anti-T. brucei activity in preliminary screening, in words: 10 µM; for T. brucei SI vs. Hepatocytes: CC50 HepG2 hepatocytes/IC50 T. brucei; for T. brucei bloodstream SI vs. Macrophages: CC50 RAW macrophages/IC50 T. brucei
[5] = Leishmania mexicana, read-out: L. mexicana Promastigote IC50, promastigotes, 48 h, MTT
[6] = read-out: L. mexicana Promastigote IC50, promastigotes, MTT
[7] = Trypanosoma brucei, read-out: T. brucei bloodstream IC50, 24 h, bioluminescence

Row | SMILES | IC50 [1, 5] [µM] | CC50 at 48 h [2] [µM] | L. mexicana Promastigote SI vs. Macrophage [1] | CC50 at 72 h [3] [µM] | melting point | activity at 10 µM ([4]; Trypanosoma brucei) [%] | inhibition at 10 µM ([4]; Trypanosoma brucei) [%] | L. mexicana Promastigote SI vs. Hepatocytes [1] | IC50 [1, 6] [µM] | anti-T. brucei activity in preliminary screening, in words [4] | T. brucei SI vs. Hepatocytes [4] | T. brucei bloodstream SI vs. Macrophages [4] | IC50 [4, 7] [µM] | SI against T. brucei, range over both mammalian cell lines ([4]; murine macrophages and HepG2 hepatocytes) | IC50 ([4]; read-out: T. brucei bloodstream IC50, bioluminescence) [µM] | CC50 at 48 h ([2]; positive control) [µg/mL]
1 | C[C@@H]1[C@H](O)[C@@H](C)/C=C/C=C/C=C/C=C/C=C/C=C/C=C/[C@H](O[C@@H]2O[C@H](C)[C@@H](O)[C@H](N)[C@@H]2O)C[C@@H]2O[C@](O)(C[C@@H](O)C[C@@H](O)[C@H](O)CC[C@@H](O)C[C@@H](O)CC(=O)O[C@H]1C)C[C@H](O)[C@H]2C(=O)O [Amphotericin B, reference compound] | 0.17 ± 0.05 | > 5 |  |  |  |  |  |  |  |  |  |  |  |  |  | 
2 | Cc1nn(-c2ccccc2)c(O)c1C(c1ccccc1O)c1c(C)nn(-c2ccccc2)c1O [Compound 2a] | 12 ± 3 | 51 ± 6 | 4.3 | > 100 | 219.5 to 220.6 °C | 77 ± 5 | 23 |  |  |  |  |  |  |  |  | 
3 | Cc1nn(-c2ccccc2)c(O)c1C(c1ccccc1)c1c(C)nn(-c2ccccc2)c1O [Compound 2b] | 32 ± 7 | 206 ± 28 | 6.4 | > 100 | 159.5 to 161.1 °C | 74 ± 7 |  | >3.1 |  |  |  |  |  |  |  | 
4 | Cc1nn(-c2ccccc2)c(O)c1C(c1ccccc1[N+](=O)[O-])c1c(C)nn(-c2ccccc2)c1O [Compound 2c] | 17 ± 8 | 53 ± 6 | 3.1 | 26 ± 16 | 210 to 211 °C | 68 ± 5 |  | 1.5 |  |  |  |  |  |  |  | 
5 | Cc1nn(-c2ccccc2)c(O)c1C(c1cccc([N+](=O)[O-])c1)c1c(C)nn(-c2ccccc2)c1O [Compound 2d] | ≤ 10 | 75 ± 15 | 7.5 | > 100 |  | 73 ± 4 |  | >10 | 10 ± 3 |  |  |  |  |  |  | 
6 | COc1ccc(C(c2c(C)nn(-c3ccccc3)c2O)c2c(C)nn(-c3ccccc3)c2O)cc1 [Compound 2e] | > 50 |  |  |  | 176 to 177 °C | > 100 |  |  |  | inactive |  |  |  |  |  | 
7 | COc1ccccc1C(c1c(C)nn(-c2ccccc2)c1O)c1c(C)nn(-c2ccccc2)c1O [Compound 2f] | 22 ± 9 | 93 ± 7 | 4.2 | > 100 |  | ≤ 50 |  | >4.5 |  |  | >12.5 | 11.6 | 8 ± 0.27 | 11.6–18 |  | 
8 | Cc1nn(-c2ccccc2)c(O)c1C(c1ccc(N(C)C)cc1)c1c(C)nn(-c2ccccc2)c1O [Compound 2g] | > 50 |  |  |  | 188.8 to 189.6 °C | > 100 |  |  |  | inactive |  |  |  |  |  | 
9 | Cc1nn(-c2ccccc2)c(O)c1C(c1cc(O)ccc1[N+](=O)[O-])c1c(C)nn(-c2ccccc2)c1O [Compound 2h] | 21 ± 4 | 108 ± 22 | 5.1 | > 100 | 205 to 207 °C (dec.) | 89 ± 3 |  | >4.8 |  |  |  |  |  |  |  | 
10 | COc1cccc(C(c2c(C)nn(-c3ccccc3)c2O)c2c(C)nn(-c3ccccc3)c2O)c1 [Compound 2i] | 10 ± 3 | 232 ± 25 | 23.2 | > 100 | 205.7 to 207.1 °C | > 100 |  | >10 |  | inactive |  |  |  |  |  | 
11 | COc1ccc(C(c2c(C)nn(-c3ccccc3)c2O)c2c(C)nn(-c3ccccc3)c2O)cc1O [Compound 2j] | 10 ± 4 | 113 ± 15 | 11.3 | > 100 | 200 to 202 °C | > 100 |  | >10 |  | inactive |  |  |  |  |  | 
12 | Cc1nn(-c2ccccc2)c(O)c1C(c1ccc([N+](=O)[O-])cc1)c1c(C)nn(-c2ccccc2)c1O [Compound 2k] | ≤ 10 | 117 ± 15 | 13 | 15 ± 6 |  | 88 ± 4 |  | 1.7 | 9 ± 1 |  |  |  |  |  |  | 
13 | Cc1nn(-c2ccccc2)c(O)c1C(c1cccc(O)c1)c1c(C)nn(-c2ccccc2)c1O [Compound 2l] | 18 ± 5 | 108 ± 33 | 6 | > 100 | 165 to 167 °C | > 100 | 0 | >5.6 |  | inactive |  |  |  |  |  | 
14 | COc1cc(C(c2c(C)nn(-c3ccccc3)c2O)c2c(C)nn(-c3ccccc3)c2O)cc(OC)c1O [Compound 2m] | 23 ± 5 | 286 ± 51 | 12.4 | > 100 | 208 to 209.5 °C | > 100 |  | >4.3 |  | inactive |  |  |  |  |  | 
15 | Cc1nn(-c2ccccc2)c(O)c1C(c1ccc(O)cc1)c1c(C)nn(-c2ccccc2)c1O [Compound 2o] | > 50 |  |  |  | 217.2 to 218.9 °C | > 100 | 0 |  |  | inactive |  |  |  |  |  | 
16 | Cc1nn(-c2ccccc2)c(O)c1C(c1ccc(F)cc1)c1c(C)nn(-c2ccccc2)c1O [Compound 2p] | 17 ± 1 | 43 ± 6 | 2.5 | 13 ± 2 | 183.8 to 185.8 °C | 79 ± 8 |  | 0.8 |  |  |  |  |  |  |  | 
17 | COC(=O)c1ccc(C(c2c(C)nn(-c3ccccc3)c2O)c2c(C)nn(-c3ccccc3)c2O)cc1 [Compound 2q] | 13 ± 3 | 111 ± 2 | 8.5 | 29 ± 4 |  | ≤ 50 |  | 2.2 |  |  | 4.9 | 19 | 6 |  | 5.9 ± 0.6 | 
18 | Cc1nn(-c2ccccc2)c(O)c1C(c1ccc(OC(F)(F)F)cc1)c1c(C)nn(-c2ccccc2)c1O [Compound 2s] |  | 49 ± 15 | 14.3 | 26 ± 15 | 174.5 to 176 °C | > 100 |  | 8.7 |  | inactive |  |  |  |  |  | 
19 | Cc1nn(-c2ccccc2)c(O)c1C(c1cccc(F)c1)c1c(C)nn(-c2ccccc2)c1O [Compound 2t] | 11 ± 1 | 115 ± 21 | 10.5 | 20 ± 11 | 178 to 179 °C | > 100 |  | 1.8 |  | inactive |  |  |  |  |  | 
20 | CSc1ccc(C(c2c(C)nn(-c3ccccc3)c2O)c2c(C)nn(-c3ccccc3)c2O)cc1 [Compound 2u] | 30 ± 10 | 96 ± 27 | 3.2 | 21 ± 10 | 209.1 to 211.3 °C | > 100 |  | 0.7 |  | inactive |  |  |  |  |  | 
21 | CC1(C)[C@@H](O[C@@H]2OC[C@H](O[C@@H]3OC[C@@H](O)[C@H](O)[C@H]3O)[C@H](O[C@H]3O[C@H](CO)[C@@H](O)[C@H](O)[C@H]3O)[C@H]2O[C@@H]2O[C@H](CO)[C@@H](O)[C@H](O)[C@H]2O[C@H]2O[C@H](CO)[C@@H](O)[C@H](O)[C@H]2O)CC[C@]2(C)[C@H]3CCC45OCC6(CC[C@@](C)(C=O)C[C@@H]64)[C@H](O)C[C@@]5(C)[C@]3(C)CC[C@@H]12 (stereo partly drawn) [Saponin, reference compound] |  |  |  |  |  |  |  |  |  |  |  |  |  |  |  | 160 ± 30
